# Results reported in patent US8968794B2, “Antiseptic compositions and uses thereof” (Ramot at Tel-Aviv University Ltd., priority 2009, dated 2015).
# Assays:
# Assay in all cases: Bactericidal activity, log10 CFU/ml after 0, 30 and 60 minutes
# Type in all cases: cell-based
# [1] = tested on: Escherichia coli ATCC 47076; conditions: baseline 7.3
# Experimental: A frozen stock of E. coli ATCC 47076 was grown overnight (1 ml in 9 ml LB medium) in a shaker incubator (200 rpm at 37° C.) until the OD600nm of the medium reached 1.6-1.8. […] The Bacterial suspension was adjusted to 10^8 CFU/ml by dilution with sterile medium. The Bacterial cells were then washed three times with 0.9% NaNO3. The NaNo3 washing cycles was performed by transferring 5 ml of the bacterial suspensions into 15 ml test tubes and subjecting the suspension to centrifugation at 4000 rpm at 4° C. for 5 minutes, followed by removal of the supernatant and re-suspension of the bacterial cell pellet in 5 ml of 0.9% NaNO3. The bactericidal activity of various concentration combinations of silver ions (from AgNO3) and menthol (solubilized by the addition of 0.5% TWEEN 20) was then assessed by adding 5 ml of the tested combinations to the bacterial cell pellets prepared as described hereinbelow and re-suspending the cell pellets by vortex. A test tube containing only 0.9% NaNO3 served as control. The bacterial suspensions thus obtained were transferred to sterile glass tubes to reduce potential cell adsorption to the walls, and kept covered at 37° C. throughout the testing period. Following 5 minutes of static incubation, 100 μl samples of the treated bacterial suspension were removed, and […] decimal dilutions in NaNO3 0.9% of the suspension were dropped onto LB agar plates. The level of bacterial proliferation was assessed by counting the number of colonies that grew on the plates and calculating the CFU/ml and log10 CFU/ml following 18 hours of incubation at 37° C. Higher log10 CFU/ml calculated for a bacterial suspension, incubated with a specific combination, is indicative of a lower level of bactericidal activity of that combination. The bacterial growth protocol was essentially as described above only that bacteria cell lines were grown in BHI growth medium (and following the growth of the cells in the medium, the bacterial suspension was adjusted to 10^7 CFU/ml by dilution with sterile medium). In addition, in these experiments, the static incubation of each bacterial suspension with the silver ion+menthol combination was for 0, 30 and 60 minutes. […] Cells incubated with NaNO3 0.9% (w/v) solution alone, without the addition of any antiseptic agent, served as control. […] S. Block, Editor. 2000, Lippincott Williams and Wilkins, pp 1305-1328. […] A baseline level was defined as the observed bacteria growth at time 0 when no antiseptic agent was added to the bacterial suspension.
# [2] = tested on: Methicillin Resistant clinical strain of Staphylococcus aureus (MRSA); conditions: baseline 6.1
# Excerpt: (§1) Various bacterial cells lines were obtained from the clinical strains collection of the Laboratory of Molecular Epidemiology and Antimicrobial Resistance, Tel Aviv Sourasky Medical Center. The bactericidal activity of the tested antiseptic combinations was thus tested against Klebsiella pneumoniae, a Methicillin Resistant clinical strain of Staphylococcus aureus (MRSA), a clinical strain of Staphylococcus epidermis, a clinical strain of Extended Spectrum β-lactamase producing Escherichia coli, a clinical strain of Multi Drug Resistant Acinetobacter baumannii, and a clinical strain of Multi Drug Resistant Pseudomonas aeruginosa.
# (§2) The bacterial growth protocol was essentially as described above only that bacteria cell lines were grown in BHI growth medium (and following the growth of the cells in the medium, the bacterial suspension was adjusted to 10^7 CFU/ml by dilution with sterile medium). In addition, in these experiments, the static incubation of each bacterial suspension with the silver ion+menthol combination was for 0, 30 and 60 minutes.
# (§3) The effect of a combination of 0.01% silver ions and 0.05% menthol (solubilized by 0.5% (v/v) TWEEN 20) on the growth and viability of various types of bacteria was evaluated.
# (§4) Cells incubated with NaNO3 0.9% (w/v) solution alone, without the addition of any antiseptic agent, served as control.
# (§5) Table 2 presents the log10 CFU/ml calculated for different types of bacterial cell suspensions incubated for 0, 30 and 60 minutes with no antiseptic agent (control) or either 0.01% silver ions (0.01% AgNO3) alone, 0.05% menthol alone or a combination of 0.01% silver ions and 0.05% menthol. A baseline level was defined as the observed bacteria growth at time 0 when no antiseptic agent was added to the bacterial suspension.
# [3] = tested on: clinical strain of Staphylococcus epidermis; conditions: baseline 5.4
# Excerpt: as §1, §2, §3, §4, §5
# [4] = tested on: clinical strain of Extended Spectrum β-lactamase producing Escherichia coli; conditions: baseline 5.9
# Excerpt: as §1, §2, §3, §4, §5
# [5] = tested on: clinical strain of Multi Drug Resistant Acinetobacter baumannii; conditions: baseline 6.4
# Excerpt: as §1, §2, §3, §4, §5
# [6] = tested on: clinical strain of Multi Drug Resistant Pseudomonas aeruginosa; conditions: baseline 6.5
# Excerpt: as §1, §2, §3, §4, §5
# [7] = tested on: Klebsiella pneumoniae; conditions: baseline 6.8
# Excerpt: as §1, §2, §3, §4, §5
SMILES,log10 CFU/ml of bacteria ([1]; treated for 0 minutes) [log10 CFU/ml],log10 CFU/ml of bacteria ([1]; treated for 30 minutes) [log10 CFU/ml],log10 CFU/ml of bacteria ([1]; treated for 60 minutes) [log10 CFU/ml],log10 CFU/ml of bacteria ([2]; treated for 0 minutes) [log10 CFU/ml],log10 CFU/ml of bacteria ([2]; treated for 30 minutes) [log10 CFU/ml],log10 CFU/ml of bacteria ([2]; treated for 60 minutes) [log10 CFU/ml],log10 CFU/ml of bacteria ([3]; treated for 0 minutes) [log10 CFU/ml],log10 CFU/ml of bacteria ([3]; treated for 30 minutes) [log10 CFU/ml],log10 CFU/ml of bacteria ([3]; treated for 60 minutes) [log10 CFU/ml],log10 CFU/ml of bacteria ([4]; treated for 0 minutes) [log10 CFU/ml],log10 CFU/ml of bacteria ([4]; treated for 30 minutes) [log10 CFU/ml],log10 CFU/ml of bacteria ([4]; treated for 60 minutes) [log10 CFU/ml],log10 CFU/ml of bacteria ([5]; treated for 0 minutes) [log10 CFU/ml],log10 CFU/ml of bacteria ([5]; treated for 30 minutes) [log10 CFU/ml],log10 CFU/ml of bacteria ([5]; treated for 60 minutes) [log10 CFU/ml],log10 CFU/ml of bacteria ([6]; treated for 0 minutes) [log10 CFU/ml],log10 CFU/ml of bacteria ([6]; treated for 30 minutes) [log10 CFU/ml],log10 CFU/ml of bacteria ([6]; treated for 60 minutes) [log10 CFU/ml],log10 CFU/ml of bacteria ([7]; treated for 0 minutes) [log10 CFU/ml],log10 CFU/ml of bacteria ([7]; treated for 30 minutes) [log10 CFU/ml],further results
"O=[N+]([O-])[O-].[Ag+] [0.01% AgNO3, silver nitrate]",6.4,0,0,5.4,0,0,0,0,0,4.8,0,0,6.3,0,0,5.1,0,0,0,0,log10 CFU/ml of bacteria ([7]; treated for 60 minutes): 0 log10 CFU/ml
"CC(C)[C@H]1CC[C@@H](C)C[C@@H]1O [0.05% Menthol, 5-methyl-2-propan-2-yl-cyclohexan-1-ol]",5.3,0,0,6.3,6.3,6.2,5.4,5.4,5.3,4.9,4.9,4.9,6.4,6.3,6.2,5.8,3.5,2.5,6.2,4.9,log10 CFU/ml of bacteria ([7]; treated for 60 minutes): 3.8 log10 CFU/ml
